Data on 7 molecules can be found in patent publication US12678446B2 (PFIZER INC., priority 2020, dated 2026).

Data set [1] concerns RSV (RSV A2 ECACC, 0709161v). Kind of data set: RSV plaque reduction assay. To be noted: mean of at least two experiments unless noted (n = 1). It is filed as cell-based, respiratory syncytial virus. Put shortly: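 Eight-point compound dilutions were premixed with RSV A2 (100 PFU/well) and applied to confluent Hep-G2 cells for 2 h, followed by a 2-day incubation at 37° C. under compound-containing 0.8% CMC overlay. EC50 comes from immunostained plaque counts relative to untreated virus wells, averaged over ≥2 runs.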

The next data set can be described thus: cell toxicity CC50. It counts as cell-based. To be noted: human; Hep-G2 cells; mean of at least two experiments; read-out: Cell Cytotoxicity CC50.
The nature of data set [2]: Liver microsomal stability, rat. It is filed as in vitro ADME. As to conditions: pooled liver microsomes, pH 7.4; rat liver microsomes 0.5 mg/mL, 1 μM compound, NADPH, up to 45 min; read-out: Liver Microsomal Stability t½. The procedure: (§1) Compounds were subjected to the following assays to investigate liver microsomal stability and hepatocyte stability.
(§2) Pooled liver microsomes were purchased from a reputable commercial supplier and stored at −80° C. prior to use. Microsomes (final protein concentration 0.5 mg/mL), 0.1 M phosphate buffer pH 7.4 and test compound (final substrate concentration 1 μM; final DMSO concentration 0.25%) were pre-incubated at 37° C. prior to the addition of NADPH (final concentration 1 mM) to initiate the reaction. The final incubation volume was 50 μL. A control incubation was included for each compound tested where 0.1 M phosphate buffer pH 7.4 was added instead of NADPH (minus NADPH). Two control compounds were included with each species. All incubations were performed singularly for each test compound. Each compound was incubated for 0, 5, 15, 30 and 45 min. The control (minus NADPH) was incubated for 45 min only. The reactions were stopped by transferring incubate into acetonitrile at the appropriate time points, in a 1:3 ratio. The termination plates are centrifuged at 3,000 rpm for 20 min at 4° C. to precipitate the protein. Following protein precipitation, the sample supernatants were combined in cassettes of up to 4 compounds, internal standard added, and samples analysed by LC-MS/MS. From a plot of ln peak area ratio (compound peak area/internal standard peak area) against time, the gradient of the line was determined. Subsequently, half-life (t1/2) and intrinsic clearance (CLint) were calculated.
For orientation: Liver microsomes are a subcellular fraction often used to study metabolism.

Data set [3] can be described thus: Liver microsomal stability, dog. It counts as in vitro ADME. To be noted: pooled liver microsomes, pH 7.4; dog liver microsomes 0.5 mg/mL, 1 μM compound, NADPH, up to 45 min; read-out: Liver Microsomal Stability t½. The procedure: as §1, §2
The nature of data set [4]: Liver microsomal stability, human. It counts as in vitro ADME. To be noted: pooled liver microsomes, pH 7.4; human liver microsomes 0.5 mg/mL, 1 μM compound, NADPH, up to 45 min; read-out: Liver Microsomal Stability t½. The procedure: as §1, §2
Data set [5] in a line: Hepatocyte stability, rat. It is filed as in vitro ADME. To be noted: cryopreserved pooled hepatocytes; rat hepatocytes 0.5×10^6 viable cells/mL, 3 μM compound, up to 60 min; read-out: Liver Hepatocyte Stability t½. The procedure: as §1
(§3) Hepatocyte Incubation: Experimental Procedure
(§4) Cryopreserved pooled hepatocytes were purchased from a reputable commercial supplier and stored in liquid nitrogen prior to use. Williams E media supplemented with 2 mM L-glutamine and 25 mM HEPES and test compound (final substrate concentration 3 μM; final DMSO concentration 0.25%) are pre-incubated at 37° C. prior to the addition of a suspension of cryopreserved hepatocytes (final cell density 0.5×10^6 viable cells/mL in Williams E media supplemented with 2 mM L-glutamine and 25 mM HEPES) to initiate the reaction. The final incubation volume is 500 μL. Two control compounds were included with each species, alongside appropriate vehicle control. The reactions are stopped by transferring 50 μL of incubate to 100 μL acetonitrile containing internal standard at the appropriate time points. Samples were removed at 6 time points (0, 5, 15, 30, 45 and 60 min) over the course of a 60 min experiment. The termination plates are centrifuged at 2500 rpm at 4° C. for 30 min to precipitate the protein. Following protein precipitation, the sample supernatants were combined in cassettes of up to 4 compounds and analysed using generic LC-MS/MS conditions. From a plot of ln peak area ratio (compound peak area/internal standard peak area) against time, the gradient of the line is determined. Subsequently, half-life (t½) and intrinsic clearance (CLint) were calculated.

Data set [6] in a line: Hepatocyte stability, dog. It is filed as in vitro ADME. To be noted: cryopreserved pooled hepatocytes; dog hepatocytes 0.5×10^6 viable cells/mL, 3 μM compound, up to 60 min; read-out: Liver Hepatocyte Stability t½. The procedure: as §1, §3, §4
Data set [7] is described as follows: Hepatocyte stability, human. To be noted: cryopreserved pooled hepatocytes; human hepatocytes 0.5×10^6 viable cells/mL, 3 μM compound, up to 60 min; read-out: Liver Hepatocyte Stability t½. It counts as in vitro ADME. The procedure: as §1, §3, §4
Data set [8] can be described thus: Rat pharmacokinetics in vivo (IV 1 mg/kg, PO 10 mg/kg). Set-up: species or system Male rats [Sprague Dawley (SD)]. As to conditions: male SD rat; for clearance / half-life / Vd / AUC(0-t) / Cmax / concentration at 8 h: Sprague Dawley; for clearance / half-life / Vd / AUC(0-t) / Cmax: plasma; for Vd: read-out: Vd; for AUC(0-t): read-out: PO AUClast; for Cmax: PO 10 mg/kg study, read-out: Cmax; for concentration at 8 h: plasma at 8 h, read-out: C 8 h; for F: PO 10 mg/kg vs IV 1 mg/kg. The procedure:
The pharmacokinetics of compounds were studied in vivo in rats at doses of 1 mg/kg (IV) and 10 mg/kg (PO).
Male rats [Sprague Dawley (SD)] surgically prepared with a jugular vein cannula were treated with experimental compounds via intravenous administration (IV; n=3; 1 mg/kg) or oral administration (PO; n=3; 10 mg/kg). Compounds were formulated as a solution in 40:60 dimethylacetamide:saline (IV administration) and a solution of 10% DMSO, 10% cremaphor in water (80%) (PO administration). […] Serial blood samples were collected via the cannula at 0.02, 0.08, 0.25, 0.5, 1, 2, 4, 6, 8 and 24 h post IV dosing of compound, and at 0.08, 0.25, 0.5, 1, 2, 4, 6, 8 and 24 h post oral dosing of compound, and plasma was prepared by centrifugation and stored immediately at −80° C. Samples were subsequently thawed, prepared for analysis by protein precipitation with acetonitrile, and analysed by tandem LCMS using electrospray ionisation using a matrix-matched calibration curve. PK parameters were calculated from the resulting data.

The subject of a further data set is Hep-G2 cells. Kind of data set: cell toxicity CC50. It is filed as cell-based. As to conditions: mean of at least two experiments, read-out: Cell Cytotoxicity CC50.
Where [9] appears, read: human respiratory syncytial virus, HepG2, read-out: RSV A2 Plaque EC50, RSV A2 in Hep-G2 cells.
Where [10] appears, read: IV 1 mg/kg, read-out: IV t½ (converted).
Setting [11] is: PO 10 mg/kg, read-out: PO t½ (converted).
The mark [12] stands for this setting: RSV A2 in Hep-G2 cells, read-out: RSV A2 Plaque EC50.

Like-named read-outs stand apart in the source and are kept apart here. Where only a bound is given, the exact number is not on record here.

Broadly, the EC50 is the concentration at which the effect is half-maximal. The term CC50 denotes the concentration that lowers cell viability or growth by half. The term Cmax denotes the maximum level reached in the sampled fluid or tissue. For `CCc1ccc(-c2nn3c(c2C(=O)N[C@H]2N=C(c4ccccc4)c4cccc(F)c4NC2=O)OCCC3)cn1` [Example 106, 2-(6-Ethylpyridin-3-yl)-N-[(3S)-9-fluoro-2-oxo-5-phenyl-1,3-dihydro-1,4-benzodiazepin-3-yl]-6,7-dihydro-5H-pyrazolo[5,1-b][1,3]oxazine-3-carboxamide], the concentration for a half-maximal effect (EC50) in [1] (setting [9]) was found to be 48 nM. Further, the half-maximal cytotoxic concentration (CC50) in “cell toxicity CC50” is > 25000 nM. For the same molecule, the half-life at 1 μM in data set [2] worked out at 0.815 h; in data set [3], 1.82 h; in [4], 3.1 h. Further, the half-life at 3 μM was 1.59 h in [5], 2 h in [6] and > 3.1 h in data set [7]. For the same molecule, the clearance in data set [8] (IV 1 mg/kg) came out at 14.6 mL/min/kg. Further, the half-life in data set [8] (setting [10]) was 1.2 h; in data set [8] (setting [11]), 3.6 h. Moreover, in data set [8] (IV 1 mg/kg), the Vd amounted to 0.7 L/kg. The AUC(0-t) in [8] (PO 10 mg/kg) turned out to be 5690 ng·h/mL. For the same molecule, the peak concentration (Cmax) in data set [8] (IV 1 mg/kg) was found to be 1030 ng/mL. The concentration at 8 h in data set [8] was found to be 271 ng/mL. The F in [8] was 59.4%.
For `C[C@H]1CCn2nc(-c3ccccc3F)c(C(=O)N[C@H]3N=C(c4ccccc4)c4cccc(F)c4NC3=O)c2O1` [Example 27, (5S)-N-[(3S)-9-fluoro-2-oxo-5-phenyl-1,3-dihydro-1,4-benzodiazepin-3-yl]-2-(2-fluorophenyl)-5-methyl-6,7-dihydro-5H-pyrazolo[5,1-b][1,3]oxazine-3-carboxamide], the EC50 in data set [1] (setting [9]) was 20 nM. In the data set “cell toxicity CC50”, the CC50 was > 25000 nM. In addition, the half-life at 1 μM in data set [2] worked out at 1.4 h; in data set [3] it was 7.72 h; in [4] it was 2.25 h. Besides, the half-life at 3 μM in data set [5] was 8.08 h; in [6], > 3.1 h; in [7], > 3.1 h. This molecule gave a clearance in [8] (IV 1 mg/kg) of 24.9 mL/min/kg. For the same molecule, the half-life is 0.72 h in data set [8] (setting [10]) and 2.8 h in data set [8] (setting [11]). Also, in data set [8] (IV 1 mg/kg), the Vd turned out to be 0.9 L/kg. Moreover, the AUC(0-t) in data set [8] (PO 10 mg/kg) amounted to 3140 ng·h/mL. Also, in data set [8] (IV 1 mg/kg), the highest concentration (Cmax) turned out to be 960 ng/mL. Further, the concentration at 8 h in data set [8] came to 75.9 ng/mL. The same molecule returned a F in [8] of 49.6%.
On to “N-[(3S)-9-fluoro-2- oxo-5-phenyl-1,3- dihydro-1,4- benzodiazepin-3-yl]- 2-(2-fluorophenyl)- 6-(pyrrolidin-1- ylmethyl)-6,7- dihydro-5H- pyrazolo[5,1- b][1,3]oxazine-3- carboxamide [Example 182]”, for which the concentration for a half-maximal effect (EC50) in data set [1] (setting [12]) is 78 nM. Besides, in the data set on Hep-G2 cells, the CC50 was determined as 20100 nM.
With `COCC1CCn2nc(-c3ccccc3F)c(C(=O)N[C@H]3N=C(c4ccccc4)c4cccc(F)c4NC3=O)c2O1` (single isomer, unassigned) [Example 191-2, (5S*)-N-[(3S)-9-fluoro-2-oxo-5-phenyl-1,3-dihydro-1,4-benzodiazepin-3-yl]-2-(2-fluorophenyl)-5-(methoxymethyl)-6,7-dihydro-5H-pyrazolo[5,1-b][1,3]oxazine-3-carboxamide], the EC50 in data set [1] (read-out: RSV A2 Plaque EC50, RSV A2 in Hep-G2 cells) turned out to be 280 nM. Also, the CC50 in the data set on Hep-G2 cells was > 25000 nM.
As to `C[C@@H]1CCn2nc(-c3ccccc3F)c(C(=O)N[C@H]3N=C(c4ccccc4)c4cccc(F)c4NC3=O)c2O1` [Example 25, (5R)-N-[(3S)-9-fluoro-2-oxo-5-phenyl-1,3-dihydro-1,4-benzodiazepin-3-yl]-2-(2-fluorophenyl)-5-methyl-6,7-dihydro-5H-pyrazolo[5,1-b][1,3]oxazine-3-carboxamide], in data set [1] (setting [9]), the EC50 amounted to 24 nM. Besides, in the data set “cell toxicity CC50”, the CC50 was > 25000 nM. Moreover, the values for the half-life at 1 μM in data set [2], in data set [3] and in data set [4] were > 2.33 h, > 2.33 h and 16.8 h, respectively. For the same molecule, the half-life at 3 μM was 1.8 h in [5], > 3.1 h in data set [6] and 4.73 h in data set [7]. Also, the clearance in [8] (IV 1 mg/kg) was determined as 4.7 mL/min/kg. Also, the half-life in data set [8] (setting [10]) is 2.2 h; in data set [8] (setting [11]), 3.4 h. In data set [8] (IV 1 mg/kg), the Vd was found to be 0.6 L/kg. Moreover, the AUC(0-t) in data set [8] (PO 10 mg/kg) is 14900 ng·h/mL. Moreover, in data set [8] (IV 1 mg/kg), the Cmax was determined as 1880 ng/mL. Besides, in data set [8], the concentration at 8 h is 812 ng/mL. In data set [8], this molecule came in with an F of 40.3%.
Take “tert-butyl N-[3- [[(3S)-9-fluoro-2- oxo-5-phenyl-1,3- dihydro-1,4- benzodiazepin-3- yl]carbamoyl]-2-(2- fluorophenyl)-6,7- dihydro-5H- pyrazolo[5,1- b][1,3]oxazin-6-yl]- N-methylcarbamate [Example 107]”: the EC50 in data set [1] (setting [12]) is 93 nM. Moreover, the CC50 in the data set with Hep-G2 cells was > 25000 nM.
On the same counts, the results for “N-[(3S)-9-fluoro-2- oxo-5-phenyl-1,3- dihydro-1,4- benzodiazepin-3-yl]-2- (2-fluorophenyl)-6- (morpholin-4- ylmethyl)-6,7-dihydro- 5H-pyrazolo[5,1- b][1,3]oxazine-3- carboxamide [Example 173]” are 91 nM and > 25000 nM.
